This is an account of results in PubChem BioAssay AID1259407 (Chemical Carcinogenesis Research Information System (CCRIS), 2018).

Active and inactive are the calls of the source. The rule behind the calls is not given here.

This data set deals with CCRIS mutagenicity, Ames/micronucleus/aberration tests. Description: CCRIS mutagenicity studies.
Where [1] appears, read: Test System: AMES SALMONELLA TYPHIMURIUM, Strain/Indicator: TA100, Metabolic Activation: NONE, Method: STANDARD PLATE.
Where [2] appears, read: Test System: AMES SALMONELLA TYPHIMURIUM, Strain/Indicator: TA1535, Metabolic Activation: NONE, Method: STANDARD PLATE.
[3] abbreviates: Test System: E. COLI, Strain/Indicator: WP2 UVRA, Metabolic Activation: NONE, Method: STANDARD PLATE.
The mark [4] stands for this setting: Test System: AMES SALMONELLA TYPHIMURIUM, Strain/Indicator: TA98, Metabolic Activation: NONE, Method: STANDARD PLATE.

For the compound `O=[N+]([O-])c1ccc2ccc3cc4c(c5ccc1c2c35)C1OC1[C@@H](O)[C@@H]4O` (stereo partly drawn), where the note is “Test System: CHINESE HAMSTER OVARY, Strain/Indicator: CHO-K1-BH4 (HGPRT)/6-THIOGUANINE, Metabolic Activation: NONE”, the mutagenic call was “active; positive”.

For the compound `BrCC(Br)c1ccccc1` (stereo not drawn), the mutagenic call (Test System: AMES SALMONELLA TYPHIMURIUM, Strain/Indicator: TA100/NG-57, Metabolic Activation: CELL PRETREATMENT WITH GLUTATHIONE, Method: PREINCUBATION) was “active; positive”; the mutagenic call (Test System: AMES SALMONELLA TYPHIMURIUM, Strain/Indicator: TA100/NG-57, Metabolic Activation: NONE, Method: PREINCUBATION) is “active; positive”; the mutagenic call (Test System: AMES SALMONELLA TYPHIMURIUM, Strain/Indicator: TA100, Metabolic Activation: CELL PRETREATMENT WITH GLUTATHIONE, Method: PREINCUBATION) was “active; positive”; the mutagenic call (Test System: AMES SALMONELLA TYPHIMURIUM, Strain/Indicator: TA100, Metabolic Activation: NONE, Method: PREINCUBATION) is “active; positive”; the mutagenic call (Test System: AMES SALMONELLA TYPHIMURIUM, Strain/Indicator: TA100, Metabolic Activation: NONE, Method: SPOT TEST) was “active; positive”.

Turning to `CC(=O)c1ccc(NO)cc1`, the mutagenic call by setting is: under setting [1], “active; positive”; under setting [2], “inactive; negative”; (Test System: E. COLI, Strain/Indicator: WP2 UVRA(P), Metabolic Activation: NONE, Method: STANDARD PLATE) “active; positive”; (Test System: E. COLI, Strain/Indicator: WP2 UVRA, Metabolic Activation: NONE, Method: FLUCTUATION TEST) “inactive; negative”; under setting [3], “active; positive”.

On to `C=C(C=O)C[C@@H]1C[C@H](O)[C@@H]2O[C@@H]3C[C@@H]4O[C@@H]5/C=C\C[C@@H]6O[C@H]7[C@H](C/C=C\C[C@H]6O[C@H]5CCC[C@H]4O[C@H]3C[C@H]2O1)O[C@@H]1C[C@@H]2O[C@@H]3CC(=O)O[C@H]3C[C@@H](C)C[C@@]2(C)O[C@H]1C[C@@H]7C`, for which the mutagenic call (End Point: In vitro chromosomal aberrations, Test System: Chinese hamster ovary (CHO-K1-BH4) cells, Metabolic Activation: None) was “active; positive (structural changes)”.

Consider `CC(C)NCC(O)COc1cccc2c1OCC(O)C2` (stereo not drawn), for which the mutagenic call is “inactive; negative” under setting [4]; “inactive; negative” (Test System: AMES SALMONELLA TYPHIMURIUM, Strain/Indicator: TA98, Metabolic Activation: S-9, Method: STANDARD PLATE); “inactive; negative” under setting [1]; “inactive; negative” (Test System: AMES SALMONELLA TYPHIMURIUM, Strain/Indicator: TA100, Metabolic Activation: S-9, Method: STANDARD PLATE); “inactive; negative” under setting [2]; “inactive; negative” (Test System: AMES SALMONELLA TYPHIMURIUM, Strain/Indicator: TA1535, Metabolic Activation: S-9, Method: STANDARD PLATE). Besides, the mutagenic call was “inactive; negative” (Test System: AMES SALMONELLA TYPHIMURIUM, Strain/Indicator: TA1537, Metabolic Activation: NONE, Method: STANDARD PLATE); “inactive; negative” (Test System: AMES SALMONELLA TYPHIMURIUM, Strain/Indicator: TA1537, Metabolic Activation: S-9, Method: STANDARD PLATE); “inactive; negative” (Test System: AMES SALMONELLA TYPHIMURIUM, Strain/Indicator: TA1538, Metabolic Activation: NONE, Method: STANDARD PLATE); “inactive; negative” (Test System: AMES SALMONELLA TYPHIMURIUM, Strain/Indicator: TA1538, Metabolic Activation: S-9, Method: STANDARD PLATE); “inactive; negative” under setting [3]; “inactive; negative” (Test System: E. COLI, Strain/Indicator: WP2 UVRA, Metabolic Activation: S-9, Method: STANDARD PLATE).

Consider `COc1cc(C=O)ccc1O`, for which the mutagenic call is “inactive; negative” under setting [4]; “inactive; negative” (Test System: AMES SALMONELLA TYPHIMURIUM, Strain/Indicator: TA98, Metabolic Activation: RAT, LIVER, S-9, AROCLOR 1254, Method: STANDARD PLATE); “inactive; negative” under setting [1]; “inactive; negative” (Test System: AMES SALMONELLA TYPHIMURIUM, Strain/Indicator: TA100, Metabolic Activation: RAT, LIVER, S-9, AROCLOR 1254, Method: STANDARD PLATE); “inactive; negative” (Test System: AMES SALMONELLA TYPHIMURIUM, Strain/Indicator: TA1535, Metabolic Activation: RAT, LIVER, S-9, AROCLOR 1254, Method: STANDARD PLATE); “inactive; negative” (Test System: E. COLI, Strain/Indicator: CM561 LEXA, Metabolic Activation: NONE, Method: STANDARD PLATE). Also, the mutagenic call is, setting by setting: (Test System: E. COLI, Strain/Indicator: CM611 UVRA/LEXA, Metabolic Activation: NONE, Method: STANDARD PLATE) “inactive; negative”; under setting [3], “inactive; negative”.

Consider `c1ccc2c(c1)ccc1c2ccc2c3ccccc3ccc21`, for which, for the setting “Test System: AMES SALMONELLA TYPHIMURIUM, Strain/Indicator: TA100, Metabolic Activation: MOUSE, LIVER, S-10, AROCLOR 1254”, the mutagenic call is “active; positive”.
